In patent US20230407243A1, “GENETIC PLATFORM TO INVESTIGATE THE FUNCTIONS OF BACTERIAL DRUG EFFLUX PUMPS” (priority 2022, published 2023):
Read-outs that look alike come from different tables or passages of the source.

How the values were obtained:
Format in all cases: cell-based, Escherichia coli
E. coli EKO-35 = test: microbe, parasite or virus in culture; settings: for MIC: Escherichia coli, EKO35, technical duplicate
Protocol: (§1) Single colonies were used to inoculate 3 mL of LB followed by incubation at 37° C. for 18 h with aeration at 220 rpm. The bacterial cells were harvested by centrifugation and resuspended in phosphate buffered saline (PBS) ([pH 7.4], 137 mM NaCl (Bioshop), 2.7 mM KCl (Bioshop), 10 mM Na2PO4 (Bioshop) and 1.8 mM K2PO4) to an OD600 nm˜1.0, followed by 1/2000 dilution into MHB II.
(§2) To a 384-well microtiter plate (Corning, untreated polystyrene), 500 nL of compound was dispensed, in duplicate, and serially titrated 2-fold using an Echo 550 acoustic liquid dispenser (Labcyte Inc.). […] As a solvent control, 500 nL of DMSO was applied to wells that contained no compound. Using a multichannel pipette, 50 μL of the prepared bacterial inoculum was applied to each well. To enable background correction post-incubation, the OD600 nm was measured (Biotek Synergy Neo2 microplate reader) prior to incubation. The plates were incubated at 37° C. with aeration at 900 rpm for 18 h. The plates were equilibrated to room temperature and the OD600 nm measured using a BioTek Synergy Neo2 microplate reader. Data was analyzed in both Prism (GraphPad, Version 9.2.0) and Microsoft Excel (Version 16.53). Raw data were input into Microsoft Excel and the pre-incubation OD600 nm measurements were subtracted from the post-incubation OD600 nm measurements. These corrected measurements were input into Prism 9 as a grouped analysis. […] All other MIC values were adjusted accordingly and visualized using the single-color scale grouped heat map function. Identification of compound chemical properties was achieved using DataWarrior (Version 5.5.0). Using PubChem, the SMILES chemical notation for each compound was obtained and compiled in Microsoft Excel. The resulting spreadsheet was input into DataWarrior and properties were calculated from the compound chemical structures.

E. coli ΔtolC = test: microbe, parasite or virus in culture; settings: for MIC: Escherichia coli, 18 h, read-out: Minimum Inhibitory Concentration, ΔtolC; for Minimum inhibitory concentration (MIC), ΔtolC: Table 10, without pore, technical duplicate
Protocol: as §1, §2

[1] = system: wild-type E. coli K-12 str. BW25113; test: microbe, parasite or virus in culture; settings: Escherichia coli, BW25113, technical duplicate
Protocol: as §1, §2

EKO-35 araC::acrBD408A = test: MIC susceptibility profiling, efflux platform; settings: Escherichia coli; Table 13B; non-porinated; technical duplicate; read-out: Minimum Inhibitory Concentration, EKO-35 araC::acrBD408A
Protocol: as §1, §2

EKO-35 araC::acrB = test: MIC susceptibility profiling, efflux platform; settings: Escherichia coli; Table 13A; non-porinated; technical duplicate; read-out: Minimum Inhibitory Concentration, EKO-35 araC::acrB
Protocol: as §1, §2

EKO-35 araC::acrD = test: MIC susceptibility profiling, efflux platform; settings: Escherichia coli; Table 13A; non-porinated; technical duplicate; read-out: Minimum Inhibitory Concentration, EKO-35 araC::acrD
Protocol: as §1, §2

EKO-35 araC::acrEF = test: MIC susceptibility profiling, efflux platform; settings: Escherichia coli; Table 13A; non-porinated; technical duplicate; read-out: Minimum Inhibitory Concentration, EKO-35 araC::acrEF
Protocol: as §1, §2

EKO-35 araC::emrAB = test: MIC susceptibility profiling, efflux platform; settings: Escherichia coli; Table 13B; non-porinated; technical duplicate; read-out: Minimum Inhibitory Concentration, EKO-35 araC::emrAB
Protocol: as §1, §2

EKO-35 araC::emrKY = test: MIC susceptibility profiling, efflux platform; settings: Escherichia coli; Table 13B; non-porinated; technical duplicate; read-out: Minimum Inhibitory Concentration, EKO-35 araC::emrKY
Protocol: as §1, §2

EKO-35 araC::macAB = test: MIC susceptibility profiling, efflux platform; settings: for MIC: Escherichia coli, Table 13B, non-porinated, technical duplicate, read-out: Minimum Inhibitory Concentration, EKO-35 araC::macAB
Protocol: as §1, §2

EKO-35 araC::mdtBC = test: MIC susceptibility profiling, efflux platform; settings: Escherichia coli; Table 13B; non-porinated; technical duplicate; read-out: Minimum Inhibitory Concentration, EKO-35 araC::mdtBC
Protocol: as §1, §2

EKO-35 araC::mdtEF = test: MIC susceptibility profiling, efflux platform; settings: Escherichia coli; Table 13A; non-porinated; technical duplicate; read-out: Minimum Inhibitory Concentration, EKO-35 araC::mdtEF
Protocol: as §1, §2

[2] = system: EKO-35 araC::mexCD (MexCD from P. aeruginosa); test: MIC susceptibility profiling, efflux platform; settings: Table 13B; non-porinated; technical duplicate; read-out: Minimum Inhibitory Concentration, EKO-35 araC::mexCD
Protocol: as §1, §2

wild-type (WT) K-12-Pore = test: microbe, parasite or virus in culture; settings: Escherichia coli, technical duplicate
Protocol: (§3) For genomic integration of the pore, the fhuA ΔC/Δ4L gene and the adjacent gentamicin resistance cassette were amplified using a high-fidelity polymerase and the fhuA_40_Up/gImS_3680_Low primers (Table 4). Integration of the pore gene was performed as described above. The pore gene was introduced into the intergenic region between the glmS and pstS genes, with gene expression under the control of a constitutive promoter (Kearse, M. et al., 2012). Genomic integrations were verified using PCR (Primers: pstS_520_Up/glmS_3680_Low, Table 4). Successful integrations were transformed with pCP20 to remove the gentamicin resistance cassette as previously described. Activity of the pore was confirmed through susceptibility testing with the large antibiotic vancomycin prior to phenotypic profiling and further susceptibility testing.
as §1, §2

ΔtolC-Pore = test: microbe, parasite or virus in culture; settings: for MIC: Escherichia coli, 18 h, read-out: Minimum inhibitory concentration, ΔtolC-Pore; for Minimum inhibitory concentration (MIC), Pore ΔtolC: Table 10, with pore, technical duplicate
Protocol: as §3, §1, §2

EKO-35-Pore = test: MIC susceptibility profiling, porinated strain; settings: for MIC: Escherichia coli, technical duplicate
Protocol: as §3, §1, §2

EKO-35 araC::mdtBC Pore = test: MIC susceptibility profiling, porinated efflux platform; settings: Escherichia coli; EKO-35 araC::mdtBC Pore; technical duplicate; read-out: Minimum inhibitory concentration
Protocol: as §3, §1, §2

EKO-35 araC::mdtEF Pore = test: as above; settings: Escherichia coli; Table 14A; porinated; technical duplicate; read-out: Minimum inhibitory concentration, EKO-35 araC::mdtEF Pore
Protocol: as §3, §1, §2

EKO-35 araC::acrB Pore = test: as above; settings: Escherichia coli; Table 14A; porinated; technical duplicate; read-out: Minimum inhibitory concentration, EKO-35 araC::acrB Pore
Protocol: as §3, §1, §2

[3] = Table 10, without pore, read-out: Minimum inhibitory concentration (MIC), EKO-35
[4] = Table 13A, non-porinated, read-out: Minimum Inhibitory Concentration, EKO-35
[5] = Table 10, without pore, read-out: Minimum inhibitory concentration (MIC), K-12
[6] = Table 13A, non-porinated, read-out: Minimum Inhibitory Concentration, K-12
[7] = Table 10, with pore, read-out: Minimum inhibitory concentration (MIC), Pore K-12
[8] = Table 14A, porinated, read-out: Minimum inhibitory concentration, K-12 (WT)-Pore
[9] = Table 10, with pore, read-out: Minimum inhibitory concentration (MIC), Pore EKO-35
[10] = Table 14A, porinated, read-out: Minimum inhibitory concentration, EKO-35-Pore

Row | Structure (SMILES) | MIC (E. coli EKO-35; [3]) [µg/mL] | MIC (E. coli EKO-35; [4]) [µg/mL] | MIC (E. coli ΔtolC) [µg/mL] | Minimum inhibitory concentration (MIC), ΔtolC (E. coli ΔtolC) [µg/mL] | MIC [1, 5] [µg/mL] | MIC [1, 6] [µg/mL] | MIC (EKO-35 araC::acrBD408A) [µg/mL] | MIC (EKO-35 araC::acrB) [µg/mL] | MIC (EKO-35 araC::acrD) [µg/mL] | MIC (EKO-35 araC::acrEF) [µg/mL] | MIC (EKO-35 araC::emrAB) [µg/mL] | MIC (EKO-35 araC::emrKY) [µg/mL] | MIC (EKO-35 araC::macAB) [µg/mL] | MIC (EKO-35 araC::mdtBC) [µg/mL] | MIC (EKO-35 araC::mdtEF) [µg/mL] | MIC [2] [µg/mL] | MIC (wild-type (WT) K-12-Pore; [7]) [µg/mL] | MIC (wild-type (WT) K-12-Pore; [8]) [µg/mL] | MIC (ΔtolC-Pore) [µg/mL] | Minimum inhibitory concentration (MIC), Pore ΔtolC (ΔtolC-Pore) [µg/mL] | also measured
1 | CC[C@H]1OC(=O)[C@H](C)[C@@H](O[C@H]2C[C@@](C)(OC)[C@@H](O)[C@H](C)O2)[C@H](C)[C@@H](O[C@@H]2O[C@H](C)C[C@H](N(C)C)[C@H]2O)[C@](C)(O)C[C@@H](C)C(=O)[C@H](C)[C@@H](O)[C@]1(C)O [erythromycin] | 3.12 | 3.12 | 3.12 | 3.125 | 100 | 100 | 3.12 | 100 | 3.12 | 50 | 3.12 | 3.12 | 12.5 | 3.12 | 50 | 25 | 6.25 | 6.25 | 0.195 | 0.195 | efflux pump-mediated resistance vs EKO-35 (EKO-35 araC::macAB; MacAB): specific; MIC (EKO-35-Pore; [9]): 0.195 µg/mL; MIC (EKO-35-Pore; [10]): 0.195 µg/mL; MIC (EKO-35 araC::mdtBC Pore): 0.195 µg/mL; MIC (EKO-35 araC::mdtEF Pore): 1.56 µg/mL
2 | CO[C@H]1/C=C/O[C@@]2(C)Oc3c(C)c(O)c4c(O)c(c(/C=N/N5CCN(C)CC5)c(O)c4c3C2=O)NC(=O)/C(C)=C\C=C\[C@H](C)[C@H](O)[C@@H](C)[C@@H](O)[C@@H](C)[C@H](OC(C)=O)[C@@H]1C [rifampicin] | 6.25 | 6.25 | 6.25 | 6.25 | 12.5 | 12.5 | 3.12 | 6.25 | 6.25 | 6.25 | 6.25 | 6.25 | 6.25 | 6.25 | 6.25 | 3.12 | 0.781 | 0.781 | 0.391 | 0.391 | Fold change of MICs (E. coli EKO-35; EKO-35 compared to EKO-35 (reference)): 1 fold; Fold changes of MICs (EKO-35-Pore; EKO-35-Pore compared to EKO-35-Pore (reference)): 1 fold; MIC (EKO-35-Pore; [9]): 0.391 µg/mL; MIC (EKO-35-Pore; [10]): 0.391 µg/mL; MIC (EKO-35 araC::acrB Pore): 1.56 µg/mL; MIC (EKO-35 araC::mdtEF Pore): 0.391 µg/mL
